The text below walks through data of patent publication US8226943B2, “Antibodies to notch receptors” (OncoMed Pharmaceuticals, Inc., priority 2008, dated 2012).

Test [1] concerns the target T1, human Notch2 (Homo sapiens, UniProt Q04721). The test can be described thus: FACS binding to human Notch2 on stably transfected HEK-293 cells. Further details: expressed in transfected cells; host or cells: HEK-293, stably transfected. To be noted: HEK-293 stably overexpressing human Notch2. The method, then: A particular Fab (59R1) was identified that bound the human Notch2 receptor and blocked binding of Jagged1 to human Notch2. Binding of the 59R1 Fab to human Notch2 was verified by FACS assay using a stable human cell line HEK-293 which overexpressed human Notch2 (hN2) (FIG. 1A). Fab binding was detected by phycoerythrin (PE)-conjugated goat anti-human Fab (Jackson Immunochemicals). […] Ligand binding and blocking was determined by incubating hJagged 1 extracellular domain (ECD) fused to human Fc constant region with the cells and Fabs selected from the phage library and using PE-conjugated goat anti-human Fc gamma specific antibodies (Jackson Immunochemicals) for detection.
In addition, the 59R1 IgG2 antibody was assayed for its ability to block binding of DLL4 to the human Notch 2 receptor by FACS analysis. HEK-293 cells stably overexpressing human Notch2 were incubated with the antibody at various concentration and then detected for hNotch2 binding (FIG. 1C) by PE-conjugated goat anti-human Fc gamma specific antibody, or ligand blocking activity (FIG. 1D). Ligand blocking was determined by incubating the cells with human DLL4 ECD tagged with the rabbit Fc constant region and the 59R1 antibody at a range of concentrations, and then detecting the hDLL4 by PE-conjugated donkey anti-rabbit antibody. […]
Background: In flow cytometry, cells or beads pass a laser one at a time.

In test [2] the test system is breast tumor xenograft line OMP-B39. As to the kind of experiment: OMP-B39 breast tumor xenograft growth. It is filed as in vivo, NOD/SCID mice. Conditions: established tumors, 15 mg/kg once a week. How it is done: The 59R1 IgG2 antibody was also tested in vivo in the breast tumor xenograft lines OMP-B34, OMP-B39, OMP-B44, PE13, and UM-T1, the pancreas tumor xenograft line OMP-PN8, and the colon tumor xenograft line OMP-C8. These tumor xenograft lines were established by adhering to procedures described in Al-Hajj et al., 2003, Proc. Natl. Acad. Sci. USA, 100:3983-3988. Female NOD/SCID immuno-compromised mice 7-10 weeks old were used for the establishment of the breast tumor xenografts and male NOD/SCID mice were used for the OMP-Pn8 and OMP-C8 tumor-models (Harlan, Indianapolis, Ind.). The 59R1 IgG2 antibody was also tested in vivo in a Colo-205 colon tumor xenograft model. Female immunodeficient bg/nu XID mice on a Swiss CD-1 background were used for the Colo-205 xenograft tumor model. In case of the breast cancer models, slow-releasing estrogen pellets (0.36 mg) had to be implanted. Mice were subcutaneously injected on the right flank with 50,000 (OMP-B34, OMP-B39, OMP-B44, PE13, and UM-T1) or 1×10^7 (Colo-205) viable cells, respectively, in a mixture of PBS (without magnesium or calcium) and Matrigel at a 1:1 ratio. […] Antibodies were administered weekly and tumors measured twice weekly. […] Tumor volume was calculated as described Al-Hajj et al. (2003). Data are expressed as the mean and the mean±S.E.M. Group means were compared using Student's two-tailed, unpaired t-test. […]

The subject of another test is PE13 breast tumors. The test can be described thus: Microarray analysis of PE13 breast tumors treated with taxol or 59R1 plus taxol. The class given is in vivo, mice. To be noted: PE13, 59R1 Taxol vs. Taxol. The method, then: In addition to investigating the effects of 59R1 in tumors and the effect on CSC frequency, gene changes were studied following 59R1 treatment in combination with taxol. The experiment was performed in PE13 breast tumors where a decrease in CSC frequency after treatment with 59R1 alone or 59R1 plus taxol treatment had previously been observed (and described herein). Microarray analysis was performed on tumors from the same experiment where limiting dilution analyses of PE13 were carried out for CSC quantification (FIG. 19). Animals bearing PE13 breast tumors were treated three weeks with 59R1 plus taxol, control and taxol prior to harvesting for microarray analysis. Mean differential expression values for taxol vs. control and 59R1 plus taxol vs. taxol treated animals (3 animals per group) were calculated.

For a further test, the target named is T2, human Notch4 (Homo sapiens, UniProt Q99466).
T2 construct: All Notch constructs were full length; expressed in transfected cells; host or cells: HEK-293, transient, co-transfected with GFP
T2 sequence (Q99466 24-2003): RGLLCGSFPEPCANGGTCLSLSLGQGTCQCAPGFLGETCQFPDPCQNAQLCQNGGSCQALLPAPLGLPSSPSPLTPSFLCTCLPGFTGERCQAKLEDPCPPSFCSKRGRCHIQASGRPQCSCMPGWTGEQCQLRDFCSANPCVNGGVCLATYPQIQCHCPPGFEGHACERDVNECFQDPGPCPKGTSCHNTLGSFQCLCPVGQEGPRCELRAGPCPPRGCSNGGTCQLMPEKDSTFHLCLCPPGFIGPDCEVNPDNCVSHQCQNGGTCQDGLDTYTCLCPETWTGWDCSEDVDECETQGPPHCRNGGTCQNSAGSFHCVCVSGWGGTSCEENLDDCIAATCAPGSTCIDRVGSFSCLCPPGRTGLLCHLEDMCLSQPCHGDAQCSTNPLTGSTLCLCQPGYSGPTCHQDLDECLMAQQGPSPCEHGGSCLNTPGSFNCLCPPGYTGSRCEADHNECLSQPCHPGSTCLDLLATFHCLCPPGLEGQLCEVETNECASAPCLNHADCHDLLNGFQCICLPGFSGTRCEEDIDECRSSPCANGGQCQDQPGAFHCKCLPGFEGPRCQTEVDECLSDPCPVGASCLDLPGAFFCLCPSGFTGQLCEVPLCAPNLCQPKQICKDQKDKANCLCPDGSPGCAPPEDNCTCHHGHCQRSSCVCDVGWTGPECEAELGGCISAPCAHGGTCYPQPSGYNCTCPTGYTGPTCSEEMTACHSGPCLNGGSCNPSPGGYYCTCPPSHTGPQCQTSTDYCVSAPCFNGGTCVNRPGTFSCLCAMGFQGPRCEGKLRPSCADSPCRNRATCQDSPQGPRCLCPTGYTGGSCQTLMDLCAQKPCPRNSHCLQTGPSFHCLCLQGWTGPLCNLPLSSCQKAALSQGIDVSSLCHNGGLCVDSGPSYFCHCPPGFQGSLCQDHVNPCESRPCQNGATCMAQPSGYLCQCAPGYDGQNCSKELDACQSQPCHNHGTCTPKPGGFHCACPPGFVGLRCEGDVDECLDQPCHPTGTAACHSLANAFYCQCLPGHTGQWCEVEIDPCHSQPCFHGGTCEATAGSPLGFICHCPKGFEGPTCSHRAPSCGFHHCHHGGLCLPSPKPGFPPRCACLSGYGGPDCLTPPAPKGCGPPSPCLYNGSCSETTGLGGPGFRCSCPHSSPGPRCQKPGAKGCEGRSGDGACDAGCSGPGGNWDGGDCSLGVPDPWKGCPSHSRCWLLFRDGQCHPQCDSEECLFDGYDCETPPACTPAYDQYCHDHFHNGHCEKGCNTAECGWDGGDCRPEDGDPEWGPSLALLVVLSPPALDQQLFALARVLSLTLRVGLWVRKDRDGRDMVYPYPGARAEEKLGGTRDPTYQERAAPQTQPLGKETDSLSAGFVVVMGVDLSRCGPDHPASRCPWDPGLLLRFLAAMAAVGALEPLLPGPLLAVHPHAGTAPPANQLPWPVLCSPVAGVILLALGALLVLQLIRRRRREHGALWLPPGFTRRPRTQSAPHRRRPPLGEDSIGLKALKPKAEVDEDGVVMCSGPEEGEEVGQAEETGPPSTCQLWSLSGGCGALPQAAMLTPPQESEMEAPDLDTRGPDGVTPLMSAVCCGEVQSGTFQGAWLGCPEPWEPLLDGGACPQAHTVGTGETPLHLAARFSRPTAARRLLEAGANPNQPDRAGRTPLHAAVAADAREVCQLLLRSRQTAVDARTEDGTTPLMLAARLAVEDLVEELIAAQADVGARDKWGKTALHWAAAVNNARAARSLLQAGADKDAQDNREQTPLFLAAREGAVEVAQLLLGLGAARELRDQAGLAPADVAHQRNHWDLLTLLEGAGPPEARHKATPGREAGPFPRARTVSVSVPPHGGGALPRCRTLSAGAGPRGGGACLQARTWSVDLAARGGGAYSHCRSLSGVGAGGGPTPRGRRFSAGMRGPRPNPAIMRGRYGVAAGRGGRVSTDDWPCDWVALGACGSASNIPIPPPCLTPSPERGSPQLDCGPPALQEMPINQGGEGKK
The test can be described thus: FACS binding to transiently transfected HEK-293 cells, human Notch4. How it is done:
The ability of the 59R1 IgG2 antibody to cross-react with other Notch receptors was determined by FACS assay using HEK-293 cells transiently transfected with the human Notch1, Notch2, Notch3 or Notch4 expression plasmid and green fluorescent protein (GFP) as a transfection control. GFP positive cells indicated expression of the transgene. The 59R1 IgG2 was added to the cells at 2 μg/ml and detected by PE-conjugated goat anti-human Fc gamma specific (Jackson Immunochemicals). All Notch constructs were full length.

In a further test the test system is stroma of Colo205 tumors. As to the kind of experiment: Microarray gene expression in stroma of treated xenograft tumors, Colo205. The class given is in vivo, mice. To be noted: 59R1 vs control.
For test [3], the target named is T3, binding of DLL4 to the human Notch 2 receptor (Homo sapiens, UniProt Q04721).
T3 construct: expressed in transfected cells; host or cells: HEK-293, stably overexpressing human Notch2
T3 sequence (Q04721 26-2471): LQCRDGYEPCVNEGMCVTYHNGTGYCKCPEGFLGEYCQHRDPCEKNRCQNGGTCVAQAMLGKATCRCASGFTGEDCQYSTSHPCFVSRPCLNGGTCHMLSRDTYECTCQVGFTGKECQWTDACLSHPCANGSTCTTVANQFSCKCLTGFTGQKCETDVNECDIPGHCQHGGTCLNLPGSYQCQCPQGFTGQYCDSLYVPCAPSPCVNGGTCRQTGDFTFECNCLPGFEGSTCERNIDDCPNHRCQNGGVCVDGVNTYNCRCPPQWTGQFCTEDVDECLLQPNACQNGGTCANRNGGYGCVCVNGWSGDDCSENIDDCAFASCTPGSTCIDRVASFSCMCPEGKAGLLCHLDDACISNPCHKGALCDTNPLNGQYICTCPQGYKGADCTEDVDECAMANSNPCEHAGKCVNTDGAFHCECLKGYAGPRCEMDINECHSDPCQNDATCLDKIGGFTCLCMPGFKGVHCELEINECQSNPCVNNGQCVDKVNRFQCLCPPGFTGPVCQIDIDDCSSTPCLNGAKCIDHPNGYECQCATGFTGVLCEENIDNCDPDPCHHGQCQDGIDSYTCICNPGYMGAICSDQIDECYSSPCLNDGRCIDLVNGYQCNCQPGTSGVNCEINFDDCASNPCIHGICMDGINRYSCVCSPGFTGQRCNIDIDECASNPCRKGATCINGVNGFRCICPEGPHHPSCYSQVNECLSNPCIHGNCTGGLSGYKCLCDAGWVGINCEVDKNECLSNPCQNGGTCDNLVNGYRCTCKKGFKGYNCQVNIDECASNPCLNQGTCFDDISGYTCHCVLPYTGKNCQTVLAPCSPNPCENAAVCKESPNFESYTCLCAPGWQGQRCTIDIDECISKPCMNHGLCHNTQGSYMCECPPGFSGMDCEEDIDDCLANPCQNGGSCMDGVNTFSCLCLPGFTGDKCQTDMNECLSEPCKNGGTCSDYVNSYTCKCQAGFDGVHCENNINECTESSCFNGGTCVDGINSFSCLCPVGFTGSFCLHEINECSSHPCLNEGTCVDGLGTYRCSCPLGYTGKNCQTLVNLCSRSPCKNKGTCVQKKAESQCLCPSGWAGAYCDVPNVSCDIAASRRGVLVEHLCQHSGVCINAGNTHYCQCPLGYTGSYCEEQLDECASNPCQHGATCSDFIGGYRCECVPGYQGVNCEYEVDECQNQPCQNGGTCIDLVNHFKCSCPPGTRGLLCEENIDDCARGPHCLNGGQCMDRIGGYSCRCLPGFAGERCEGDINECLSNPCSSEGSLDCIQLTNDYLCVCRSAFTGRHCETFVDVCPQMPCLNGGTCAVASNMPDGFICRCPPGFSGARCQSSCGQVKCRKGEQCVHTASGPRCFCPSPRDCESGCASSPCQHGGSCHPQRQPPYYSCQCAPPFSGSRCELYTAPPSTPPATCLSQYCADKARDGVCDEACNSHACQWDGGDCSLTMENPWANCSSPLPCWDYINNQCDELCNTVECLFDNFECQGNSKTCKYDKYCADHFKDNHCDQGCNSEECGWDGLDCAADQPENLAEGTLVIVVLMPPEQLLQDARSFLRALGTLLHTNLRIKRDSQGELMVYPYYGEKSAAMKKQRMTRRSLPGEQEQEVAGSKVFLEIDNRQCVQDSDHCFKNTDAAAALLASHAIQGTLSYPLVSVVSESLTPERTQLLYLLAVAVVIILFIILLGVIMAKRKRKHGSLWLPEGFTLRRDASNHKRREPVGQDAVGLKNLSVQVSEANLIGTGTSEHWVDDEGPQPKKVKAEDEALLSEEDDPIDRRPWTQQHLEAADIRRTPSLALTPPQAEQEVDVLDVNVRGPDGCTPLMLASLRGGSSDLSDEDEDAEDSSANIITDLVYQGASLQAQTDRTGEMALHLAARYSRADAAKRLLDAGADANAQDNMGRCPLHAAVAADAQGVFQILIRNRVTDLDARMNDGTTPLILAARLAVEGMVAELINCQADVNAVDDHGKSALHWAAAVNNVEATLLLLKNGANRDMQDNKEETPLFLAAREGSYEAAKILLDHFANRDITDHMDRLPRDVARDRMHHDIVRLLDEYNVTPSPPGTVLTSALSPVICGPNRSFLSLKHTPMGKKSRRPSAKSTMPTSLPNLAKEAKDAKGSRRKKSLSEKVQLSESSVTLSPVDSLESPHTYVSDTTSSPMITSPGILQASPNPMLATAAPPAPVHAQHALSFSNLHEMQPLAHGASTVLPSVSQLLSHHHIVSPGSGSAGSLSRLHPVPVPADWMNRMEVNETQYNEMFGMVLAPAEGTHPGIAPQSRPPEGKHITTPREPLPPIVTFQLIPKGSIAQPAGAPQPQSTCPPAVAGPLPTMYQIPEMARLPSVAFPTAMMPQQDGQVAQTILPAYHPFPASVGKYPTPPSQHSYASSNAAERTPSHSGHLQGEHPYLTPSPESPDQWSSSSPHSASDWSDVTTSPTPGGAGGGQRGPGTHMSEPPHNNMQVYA
The test can be described thus: FACS blocking of hDLL4 ECD-Fc binding to human Notch2 on HEK-293 cells. To be noted: HEK-293 stably overexpressing human Notch2. How it is done: In addition, the 59R1 IgG2 antibody was assayed for its ability to block binding of DLL4 to the human Notch 2 receptor by FACS analysis. HEK-293 cells stably overexpressing human Notch2 were incubated with the antibody at various concentration and then detected for hNotch2 binding (FIG. 1C) by PE-conjugated goat anti-human Fc gamma specific antibody, or ligand blocking activity (FIG. 1D). Ligand blocking was determined by incubating the cells with human DLL4 ECD tagged with the rabbit Fc constant region and the 59R1 antibody at a range of concentrations, and then detecting the hDLL4 by PE-conjugated donkey anti-rabbit antibody. Binding of hNotch2 and ligand blocking activity were thus confirmed for the 59R1 IgG2 antibody.

Another test concerns murine Notch2. The test can be described thus: DLL4-Fc induced receptor activation in transfected PC3 cells, murine Notch2. The class given is cell-based, mouse. To be noted: immobilized DLL4-Fc. How it is done: (§1) 59R5 was determined to have similar activity in blocking Notch2 and Notch3 signaling as 59R1. Receptor activation was determined in luciferase-based assays. PC3 tumor cells were transiently transfected with a human or mouse Notch receptor (human Notch2, murine Notch2, human Notch3, or murine Notch3) and […] inducible reporter construct. Transfected cells were incubated with different concentrations of 59R1 or 59R5 antibody in the presence of passively immobilized DLL4-Fc protein. Notch receptor activation was determined by measuring luciferase activity.

The target in test [4] is T1, human Notch2. The test can be described thus: DLL4-Fc induced receptor activation in transfected PC3 cells, human Notch2. The class given is cell-based. Further details: expressed in transfected cells. To be noted: immobilized DLL4-Fc. The method, then:
as §1

T1 sequence (Q04721 26-2471): as above

Consider “59R1: human IgG2 antibody binding Notch2 and Notch3; heavy and light chain SEQ ID NO:16 and 18; ATCC PTA-9547”, for which the “binding to human Notch2 (FACS)” value with human Notch2 [1] is recorded as “confirmed”. For the same substance, the “B39 breast cancer growth relative to control antibody” value in test [2] is recorded as “inhibit breast cancer growth”. Further, in the test on PE13 breast tumors, the “Fold BMPR1B” value is reported as −4.3, the “Fold BNIP3” value came out at 1.8, the “Fold EGLN3” value turned out to be 11.9 and the “Fold HSPB6” value is reported as −1.8. Also, in the test with PE13 breast tumors, the “Fold ITGAM” value is recorded as −2.5, the “Fold LHX8” value is listed as −4.4, the “Fold NDRG1” value was found to be 6.4 and the “Fold RARRES1” value is listed as −2.2. For the same substance, in the test on PE13 breast tumors, the “Fold RARRES3” value was −1.7, the “Fold RBP2” value is listed as −2.2 and the “Fold XAF1” value is recorded as −1.5. Also, the “binding to full-length human Notch4 (FACS)” value in the test with human Notch4 is “does not bind significantly”. In the test on stroma of Colo205 tumors, the “Fold 1416286_at (Rgs4)” value was −3.08, the “Fold 1418829_a_at (Eno2)” value was found to be 1.79, the “Fold 1419302_at (Heyl)” value was −3.28 and the “Fold 1420941_at (Rgs5)” value was −5.10. Moreover, in the test on stroma of Colo205 tumors, the “Fold 1422789_at (Aldh1a2)” value was −1.73, the “Fold 1428361_x_at (Hba-al/Hba-a2)” value is given as −8.91, the “Fold 1449280_at (Esm1)” value is 2.07 and the “Fold 1449632_s_at (Fkbp10)” value is listed as −1.72. The “Fold 1459713_s_at (Tmem16a)” value with stroma of Colo205 tumors is on record as −1.90. The “blocking of hDLL4 binding to human Notch2 (FACS)” value in test [3] is “confirmed”.

Take “59R5: human antibody that specifically binds human Notch 2 and human Notch 3; heavy and light chain SEQ ID NO:49 and 18; ATCC PTA-10170”: in the test with murine Notch2, the “ligand-induced activation of murine Notch2 receptor signaling” value is “blocked”. The “ligand-induced activation of human Notch2 receptor signaling” value with human Notch2 [4] is given as “blocked”.
